# Assay results from patent US8337858B2, “Extracts of Aphanizomenon Flos Aquae and nutritional, cosmetic and pharmaceutical compositions containing the same” (Nutratec S.R.L., priority 2006, dated 2012).
# Where two headings read alike, the source gives them in different places.
# Legend:
# [1] = ORAC (Oxygen Radical Absorbance Capacity) assay with fluorescein and AAPH; type: biochemical; conditions: for ORACFL value expressed per mg: recalculated from Ou et al., 2001; for ORAC value: fluorescein, AAPH 4 mM, 37° C.
# Method: The ORAC assay was carried out at 37° C. on a FLUOstar OPTIMA spectrofluorimeter (BGM LABTECH, Germany) at 485 nm excitation and 520 nm emission, using the method of Ou et al. (32) with minor modifications. Briefly, in the final assay mixture, fluorescein (FL) (0.05 μM) was used as a target of free radical attack, with AAPH (4 mM) as a peroxyl radical generator. Trolox (1 μM) was used as a control standard and phosphate buffer as a blank. The concentrations of tested compounds in the assay mixture ranged from 0.025 μM to 2 μM. All substances were dissolved and diluted with 75 mM Na-phosphate buffer pH 7; PCB solution was made by dissolving the compound first in ethanol and then bringing the solution to the desired concentration with the buffer. All samples were run in triplicate. Fluorescence was recorded every 5 min after AAPH was added. Final results (ORAC values) were calculated using the differences in the areas under the fluorescence decay curves (AUC) between the sample and blank and expressed as Trolox equivalents: ORAC value=[(AUCsample−AUCblank)/(AUCtrolox−AUCblank)]×(molaritytrolox/molaritysample)
# To evaluate the antioxidant capacity of the extract in terms of the ORAC test, we used the same methodology we used to test the ORAC for PC and PCB. In order to test both the water soluble and the lipid soluble components of the AFA extract, we first prepared the two water and lipid soluble extracts, as follows.
# Preparation of the Water Soluble Extract • Weigh 10 mg of extract in 1 ml of distilled water and homogenize for 1 min through a mechanical potter. • Centrifuge at 2500 rpm for 10′ at 4° C. to remove cellular debris. • Collect the supernatant and resuspend the pellet in 1 ml of water. • Homogenize for 1 min with a mechanical potter. • Centrifuge at 2500 rpm for 10′ at 4° C. • Collect the supernatant and mix with that obtained from the first water extraction. • Preserve the water extract (with a blue color for the presence of the PC) at +4 o-20° C.
# Preparation of the Lipid Soluble Extract • Resuspend the pellet obtained from the previous extraction in 1 ml of acetone. • Homogenize for 1 min with a mechanical potter. • Centrifuge at 2500 rpm for 10′ at 4° C. • Collect the supernatant and resuspend the pellet in 1 ml of acetone. • Homogenize for 1 min with a mechanical potter. • Centrifuge at 2500 rpm for 10′ at 4° C. • Collect the supernatant and mix with that obtained from the first extraction with acetone. • Preserve the lipophilic extract (with an orange color for the presence of carotenes) at +4°-20° C.
# [2] = Ou et al., 2001; cited from earlier work
# Jurkat cells = test: Intracellular dichlorofluorescein fluorescence in Jurkat cells oxidized with H2O2; type: cell-based
# Method: Starting from the Basic extract, and following the methodology already described, we have purified the AFA-phycocyanin, with its C-PC/PEC complex, to test its antioxidant properties on live cultured cells. The Jurkat cells (immortalized line of leucemia T-lymphocytes) have been subjected to oxidative stress with 500 μM H2O2, together or without increasing dosages of AFA-PC and PCB. The fluorescence emitted by the intracellular probe (dichlorofluorescein), following oxydation from H2O2, has been recorded after 30 minutes of incubation with H2O2 through a fluorimeter (exc. at 492 nm and emission at 520 nm). By incubating cells with both AFA-PC (range 0.1-10 μM) and 500 μM H2O2 for 30 minutes we observe a dose-dependent protective effect with a reduction of intracellular fluorescence induced by H2O2, with an IC50 of 0.5 μM, and a 100% inhibition (non-oxidized cells) at 10 μM (FIG. 13).
# The antioxidant properties of the whole PC, composed of C-PC and PEC, resides in its chromophores, which are phycocyanibilin (PCB) for C-PC and both PCB and PVB (phycoviolobilin) for PEC. We have purified the C-PC chromophore PCB, to test it on cultured cells oxidized with H2O2 (range FCB 0.1-40 μM). Also in this case we observe a dose-dependent antioxidant effect with an IC50 of 0.5 μM, and a 100% inhibition (non-oxidized cells) at 40 μM (FIG. 13).
# Most importantly, to evaluate the cellular absorption of PC and PCB, both compounds have been pre-incubated for 2 hrs. with the cells; afterwards, the medium has been washed, to exclude any unabsorbed PC and PCB, and the cells have been oxidized for 30 min. with H2O2. As shown by the FIG. 14, there is a dose-dependent inhibition of intracellular fluorescence. This means that the cell is able to retain both antioxidant molecules, either in the membrane or in the cytoplasm.
# COX-1 = target: T1, COX-1 (Ovis aries, UniProt P05979); test: COX Inhibitor Screening Assay (Cayman), COX-1; type: biochemical
# T1 construct: purchased Cayman
# T1 sequence (P05979 25-600): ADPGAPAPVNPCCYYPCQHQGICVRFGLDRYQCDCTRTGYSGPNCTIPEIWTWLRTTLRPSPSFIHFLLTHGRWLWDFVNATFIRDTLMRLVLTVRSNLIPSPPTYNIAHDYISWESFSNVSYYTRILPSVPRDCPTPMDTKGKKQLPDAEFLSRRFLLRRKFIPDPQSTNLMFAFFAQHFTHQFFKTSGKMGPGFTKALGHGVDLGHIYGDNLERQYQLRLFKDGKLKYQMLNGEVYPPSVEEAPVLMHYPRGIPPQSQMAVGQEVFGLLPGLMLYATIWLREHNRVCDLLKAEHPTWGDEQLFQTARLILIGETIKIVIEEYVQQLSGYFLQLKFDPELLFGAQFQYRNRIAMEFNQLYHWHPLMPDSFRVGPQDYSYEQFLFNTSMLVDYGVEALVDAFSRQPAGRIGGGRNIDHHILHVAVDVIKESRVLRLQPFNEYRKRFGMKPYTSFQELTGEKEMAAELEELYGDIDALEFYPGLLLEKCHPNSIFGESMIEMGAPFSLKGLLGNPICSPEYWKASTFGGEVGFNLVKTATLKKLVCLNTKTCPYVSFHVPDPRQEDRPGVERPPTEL
# Method: (§1) Given that the phycocyanins from Klamath AFA algae are different from the ones from Spirulina, ands that no test has ever been done on their effect on the COX enzymes, we decided to perform such test through the immunoenzymatic kit “COX Inhibitor Screening Assay” of the Cayman company. We thus evaluated the COX-1 and COX-2 inhibition by the AFA extract (both the water soluble part in water, and the lipid soluble in acetone; range 25-200 μg/ml); by the pure PC (0.03-3 μM) and PCB (0-15 μM). The results are shown in FIG. 29, presenting the graphic of the percent activity of COX-1 and COX-2 at the different concentrations of AFA extract, PC and PCB.
# COX-2 = target: T2, COX-2 (Homo sapiens, UniProt P35354); test: COX Inhibitor Screening Assay (Cayman), COX-2; type: biochemical; conditions: 0-15 μM
# T2 construct: purchased Cayman
# T2 sequence (P35354 18-604): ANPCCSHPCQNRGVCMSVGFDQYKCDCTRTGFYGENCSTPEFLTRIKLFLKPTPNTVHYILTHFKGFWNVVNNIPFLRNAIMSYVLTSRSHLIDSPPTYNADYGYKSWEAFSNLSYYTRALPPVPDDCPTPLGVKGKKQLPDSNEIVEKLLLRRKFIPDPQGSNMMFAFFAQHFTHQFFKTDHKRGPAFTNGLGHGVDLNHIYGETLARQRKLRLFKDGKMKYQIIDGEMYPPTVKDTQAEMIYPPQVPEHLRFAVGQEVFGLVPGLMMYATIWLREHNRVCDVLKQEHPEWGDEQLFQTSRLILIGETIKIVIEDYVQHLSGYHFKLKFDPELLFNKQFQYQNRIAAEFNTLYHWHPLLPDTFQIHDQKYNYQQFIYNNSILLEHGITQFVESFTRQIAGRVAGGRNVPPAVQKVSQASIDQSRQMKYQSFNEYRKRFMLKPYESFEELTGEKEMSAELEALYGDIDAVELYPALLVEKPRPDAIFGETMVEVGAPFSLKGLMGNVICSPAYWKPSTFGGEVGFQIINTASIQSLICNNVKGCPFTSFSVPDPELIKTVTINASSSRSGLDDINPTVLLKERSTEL
# Method: as §1
# [3] = test system: human plasma oxidized by CuCl2; test: MDA (TBA test) formation in human plasma oxidized by CuCl2; conditions: read-out: IC50, metal-induced oxidation of plasma lipids (MDA); plasma incubated 2 hours at 37° C. with CuCl2 (FIG. 9A panel B)
molecule,measurement,setting,value
Oc1cc(O)c2c(c1)O[C@H](c1ccc(O)c(O)c1)[C@@H](O)C2 [(+)-catechin],ORACFL value expressed per mg,[1],23.3 μmol Trolox/mg compound
same,ORACFL value,[2],6.76 μmol Trolox/μmol compound
O=C1O[C@H]([C@@H](O)CO)C(O)=C1O [AA],ORAC value,[1],0.75 Trolox equiv.
"N[C@@H](CCC(=O)N[C@@H](CS)C(=O)NCC(=O)O)C(=O)O [GSH, reduced glutathione]",ORAC value,[1],0.57 Trolox equiv.
O=c1c(O)c(-c2ccc(O)c(O)c2)oc2cc(O)cc(O)c12 [quercetin],ORACFL value expressed per mg,[1],24.0 μmol Trolox/mg compound
same,ORACFL value,[2],7.28 μmol Trolox/μmol compound
phycocyanobilin [PCB],inhibition of intracellular fluorescence,"Jurkat cells; 40 μM, together with H2O2",100%
same,oxidative effect (increase of intracellular fluorescence),Jurkat cells; incubated 30 minutes with cells without H2O2,do not have any oxidative effect
same,oxidative effect (increase of intracellular fluorescence),Jurkat cells; incubated 2 hrs. with cells,did not produce any oxidative effect
same,IC50,"Jurkat cells; incubated together with 500 μM H2O2 for 30 minutes (FIG. 13), read-out: IC50, reduction of intracellular fluorescence induced by H2O2",500 nM
same,"protection, absorption test","Jurkat cells; pre-incubated 2 hrs., medium washed, then H2O2 30 min (FIG. 14)",more than 90%
same,IC50,"Jurkat cells; pre-incubated 2 hrs., medium washed, then H2O2 30 min (FIG. 14), read-out: IC50, inhibition of intracellular fluorescence, absorption test",1900 nM
same,effect on COX-1 activity,COX-1,increases the COX-1 activity
same,ORAC value expressed per mg,[1],37.0 μmol Trolox/mg
same,ORAC value,[1],22.18 Trolox equiv.
same,COX-2 inhibition,COX-2,scarcely inhibitor of the COX-2
same,IC50,[3],~160 nM
